From patent US9365506B2, “Compounds and compositions as TLR2 agonists” (NOVARTIS AG, priority 2010, dated 2016)

Biological target: human TLR2 (Homo sapiens, UniProt O60603)
Assay: Reporter gene assay: HEK 293 cells stably transfected with human TLR2 and NF-kB-driven luciferase reporter
Conditions: for Emax: HEK293, 7 h, read-out: Hek-TLR2 (% Eff); for EC50: Hek-TLR2 μM (EC50), HEK 293 stably transfected with human TLR2 and pNifty-Luciferase, 7 hours incubation, concentration giving 50% of maximal signal
Description: As a control assay, normal Hek293 transfected with pNifty-Luc were used. […] Bright-Glo™ Luciferase assay buffer and substrate were supplied by Promega #E263B and #E264B (assay substrate and buffer respectively). 384 well clear-bottom plates were supplied by Greiner bio-one (#789163-G) and were custom bar-coded plates.
Cells were plated at 25,000 cells/well in 384-well plates in a final volume of 50 μl of media. Cells were allowed to adhere to the plates after overnight (18 hours) culture at 37° C. and 5% CO2. Serially diluted experimental and positive control compounds were then dispensed to each well and incubated for 7 hours at 37° C. and 5% CO2. Cells stimulated with DMSO alone also serve as negative controls. After the incubation, 30 μl of the pre-mix assay buffer and substrate buffer were added to each well according to manufacturer's instructions. The luminescence signal was read on a CLIPR machine with an integration time of 20 seconds per plate.

Sequence of human TLR2 (O60603 21-784): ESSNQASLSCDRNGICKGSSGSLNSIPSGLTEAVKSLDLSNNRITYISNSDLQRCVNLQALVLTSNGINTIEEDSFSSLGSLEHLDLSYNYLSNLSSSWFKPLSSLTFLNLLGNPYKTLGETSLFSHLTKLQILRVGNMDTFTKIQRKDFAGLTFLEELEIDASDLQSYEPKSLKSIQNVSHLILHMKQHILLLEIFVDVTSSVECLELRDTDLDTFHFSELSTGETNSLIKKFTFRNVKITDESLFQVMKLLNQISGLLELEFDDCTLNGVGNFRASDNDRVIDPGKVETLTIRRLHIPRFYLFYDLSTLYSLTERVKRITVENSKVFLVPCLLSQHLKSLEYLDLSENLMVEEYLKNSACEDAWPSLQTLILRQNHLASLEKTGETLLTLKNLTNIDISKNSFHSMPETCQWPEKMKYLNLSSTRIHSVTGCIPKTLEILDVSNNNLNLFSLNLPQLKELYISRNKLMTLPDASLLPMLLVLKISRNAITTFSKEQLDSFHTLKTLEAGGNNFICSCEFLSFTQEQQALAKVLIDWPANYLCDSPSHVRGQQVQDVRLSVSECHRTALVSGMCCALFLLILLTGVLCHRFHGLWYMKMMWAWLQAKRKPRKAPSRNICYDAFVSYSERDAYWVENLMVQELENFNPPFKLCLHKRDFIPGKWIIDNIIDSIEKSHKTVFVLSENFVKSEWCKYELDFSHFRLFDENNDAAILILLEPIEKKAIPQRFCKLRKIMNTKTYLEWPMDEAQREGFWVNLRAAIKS

| Structure (SMILES) | Emax [%] | EC50 [nM] |
| --- | --- | --- |
| CCCCCCCCCCCCCCCC(=O)N[C@@H](CSC[C@@H](COC(=O)CCCCCCCCCCC)OC(=O)CCCCCCCCCCC)C(=O)NCCCOCCOCCOCCCNC(=O)CCC1OCCO1 [Example 40, (20R,24R)-1-(1,3-dioxolan-2-yl)-3,19-dioxo-20-palmitamido-8,11,14-trioxa-22-thia-4,18-diazapentacosane-24,25-diyl didodecanoate] | 25 | 96 |
| CCCCCCCCCCCC(=O)OC[C@H](CSC[C@H](N)C(=O)NCCc1ccc(OCCOCCO)cc1)OC(=O)CCCCCCCCCCC [Example 41, (R)-3-(((R)-2-amino-3-((4-(2-(2-hydroxyethoxy)ethoxy)phenethyl)amino)-3-oxopropyl)thio)propane-1,2-diyl didodecanoate] | 61 | 15300 |
| CCCCCCCCCCCC(=O)OC[C@H](CSC[C@H](N)C(=O)NCCCCCCCCCC(=O)O)OC(=O)CCCCCCCCCCC [Example 42, 10-((R)-2-amino-3-(((R)-2,3-bis(dodecanoyloxy)propyl)thio)propanamido)decanoic acid] | 101 | 4400 |
| CCCCCCCCCCCC(=O)OC[C@H](CSC[C@H](N)C(=O)NC(C)(C)CO)OC(=O)CCCCCCCCCCC [Example 43, (R)-3-(((R)-2-amino-3-((1-hydroxy-2-methylpropan-2-yl)amino)-3-oxopropyl)thio)propane-1,2-diyl didodecanoate] | 54 | 15500 |
| CCCCCCCCCCCC(=O)OC[C@H](CSC[C@H](N)C(=O)NCCc1ccc(OCCC(C)C)cc1)OC(=O)CCCCCCCCCCC [Example 44, (R)-3-(((R)-2-amino-3-((4-(isopentyloxy)phenethyl)amino)-3-oxopropyl)thio)propane-1,2-diyl didodecanoate] | 72 | 8170 |
| CCCCCCCCCCCC(=O)OC[C@H](CSC[C@H](N)C(=O)NCCc1cccc(O)c1)OC(=O)CCCCCCCCCCC [Example 49, (R)-3-(((R)-2-amino-3-((3-hydroxyphenethyl)amino)-3-oxopropyl)thio)propane-1,2-diyl didodecanoate] | 51 | > 21000 |
| CCCCCCCCCCCC(=O)OC[C@H](CSC[C@H](N)C(=O)NCCOCCOCCN)OC(=O)CCCCCCCCCCC [Example 54, (11R,15R)-1,11-diamino-10-oxo-3,6-dioxa-13-thia-9-azahexadecane-15,16-diyl didodecanoate] | 101 | 1290 |
| CCCCCCCCCCCC(=O)OC[C@H](CSC[C@H](N)C(=O)NCCCCCCN)OC(=O)CCCCCCCCCCC [Example 56, (R)-3-(((R)-2-amino-3-((6-aminohexyl)amino)-3-oxopropyl)thio)propane-1,2-diyl didodecanoate] | 107 | 1220 |
| CCCCCCCCCCCC(=O)OC[C@H](CSC[C@H](N)C(=O)NCCCCN)OC(=O)CCCCCCCCCCC [Example 57, (R)-3-(((R)-2-amino-3-((4-aminobutyl)amino)-3-oxopropyl)thio)propane-1,2-diyl didodecanoate] | 111 | 1040 |
| CCCCCCCCCCCC(=O)OC[C@H](CSC[C@H](N)C(=O)NCCCN1CCOCC1)OC(=O)CCCCCCCCCCC [Example 59, (R)-3-(((R)-2-amino-3-((3-morpholinopropyl)amino)-3-oxopropyl)thio)propane-1,2-diyl didodecanoate] | 121 | 710 |
| CCCCCCCCCCCC(=O)OC[C@H](CSC[C@H](N)C(=O)NCCCn1ccnc1)OC(=O)CCCCCCCCCCC [Example 60, (R)-3-(((R)-3-((3-(1H-imidazol-1-yl)propyl)amino)-2-amino-3-oxopropyl)thio)propane-1,2-diyl didodecanoate] | 119 | 410 |
| CCCCCCCCCCCC(=O)OC[C@H](CSC[C@H](N)C(=O)NC(CC)COC)OC(=O)CCCCCCCCCCC (stereo partly drawn) [Example 63, (2R)-3-(((2R)-2-amino-3-((1-methoxybutan-2-yl)amino)-3-oxopropyl)thio)propane-1,2-diyl didodecanoate] | 96 | 71.8 |
| CCCCCCCCCCCC(=O)OC[C@H](CSC[C@H](N)C(=O)NCCCOCCOCCOCCCN)OC(=O)CCCCCCCCCCC [Example 64, (16R,20R)-1,16-diamino-15-oxo-4,7,10-trioxa-18-thia-14-azahenicosane-20,21-diyl didodecanoate] | 124 | 498 |
| CCCCCCCCCCCC(=O)OC[C@H](CSC[C@H](N)C(=O)NC(Cc1ccccc1)c1ccccc1)OC(=O)CCCCCCCCCCC (stereo partly drawn) [Example 67, (2R)-3-(((2R)-2-amino-3-((1,2-diphenylethyl)amino)-3-oxopropyl)thio)propane-1,2-diyl didodecanoate] | 64 | 68 |
| CCCCCCCCCCCC(=O)OC[C@H](CSC[C@H](N)C(=O)NCCc1ccc(Oc2ccccc2)cc1)OC(=O)CCCCCCCCCCC [Example 68, (R)-3-(((R)-2-amino-3-oxo-3-((4-phenoxyphenethyl)amino)propyl)thio)propane-1,2-diyl didodecanoate] | 77 | 4080 |
| CCCCCCCCCCCC(=O)OC[C@H](CSC[C@H](N)C(=O)NC(C)CCCN(CC)CC)OC(=O)CCCCCCCCCCC (stereo partly drawn) [Example 69, (2R)-3-(((2R)-2-amino-3-((5-(diethylamino)pentan-2-yl)amino)-3-oxopropyl)thio)propane-1,2-diyl didodecanoate] | 118 | 257 |

The remaining lines, values ahead:

| Emax [%] | EC50 [nM] | Structure (SMILES) |
| --- | --- | --- |
| 49 | 30700 | CCCCCCCCCCCC(=O)OC[C@H](CSC[C@H](N)C(=O)NCCCC(C)(C)CO)OC(=O)CCCCCCCCCCC [Example 72, (R)-3-(((R)-2-amino-3-((5-hydroxy-4,4-dimethylpentyl)amino)-3-oxopropyl)thio)propane-1,2-diyl didodecanoate] |
| 105 | 190 | CCCCCCCCCCCC(=O)OC[C@H](CSC[C@H](N)C(=O)NC(C)CCC(C)C)OC(=O)CCCCCCCCCCC (stereo partly drawn) [Example 74, (2R)-3-(((2R)-2-amino-3-((5-methylhexan-2-yl)amino)-3-oxopropyl)thio)propane-1,2-diyl didodecanoate] |
| 58 | 960 | CCCCCCCCCCCCCCCC(=O)N[C@@H](CSC[C@@H](COC(=O)CCCCCCCCCCC)OC(=O)CCCCCCCCCCC)C(=O)N[C@@H](C)C(=O)N[C@H](CCC(=O)O)C(N)=O [Example 75, (4R,7S,10R,14R)-4-carbamoyl-14-(dodecanoyloxy)-7-methyl-6,9,17-trioxo-10-palmitamido-16-oxa-12-thia-5,8-diazaoctacosan-1-oic acid] |
| 109 | 3450 | CCCCCCCCCCCCCCCCOC[C@H](CSC[C@H](N)C(=O)NCCOCCOCCOCCP(=O)(O)O)OCCCCCCCCCCCCCCCC [Example 76, ((14R,18R)-14-amino-18-(hexadecyloxy)-13-oxo-3,6,9,20-tetraoxa-16-thia-12-azahexatriacontyl)phosphonic acid] |
| 100 | 38 | CCCCCCCCCCCC(=O)OC[C@H](CSC[C@H](N)C(=O)NCCOCCOCCOCCOCCP(=O)(O)O)OC(=O)CCCCCCCCCCC [Example 77, ((17R,21R)-17-amino-21-(dodecanoyloxy)-16,24-dioxo-3,6,9,12,23-pentaoxa-19-thia-15-azapentatriacontyl)phosphonic acid] |
| 35 | 1430 | CCCCCCCCCCCCOC[C@H](CSC[C@H](N)C(=O)NCCOCCOCCOCCOCCP(=O)(O)O)OCCCCCCCCCCCC [Example 78, ((17R,21R)-17-amino-21-(dodecyloxy)-16-oxo-3,6,9,12,23-pentaoxa-19-thia-15-azapentatriacontyl)phosphonic acid] |
| 20 | 1860 | CCCCCCCCCCCCOC[C@H](CSC[C@H](N)C(=O)NCCOCCOCCOCCOCCP(=O)(O)O)NC(=O)CCCCCCCCCCC [Example 79, ((17R,21R)-17-amino-21-dodecanamido-16-oxo-3,6,9,12,23-pentaoxa-19-thia-15-azapentatriacontyl)phosphonic acid] |
| 52 | 1910 | CCCCCCCCCCCCOC[C@H](CSC[C@H](N)C(=O)N[C@@H](CO)C(=O)NCCOCCOCCP(=O)(O)O)OCCCCCCCCCCCC [Example 80, ((11S,14R,18R)-14-amino-18-(dodecyloxy)-11-(hydroxymethyl)-10,13-dioxo-3,6,20-trioxa-16-thia-9,12-diazadotriacontyl)phosphonic acid] |
| 30 | 1970 | CCCCCCCCCCCCOC[C@H](CSC[C@H](N)C(=O)N[C@@H](CO)C(=O)NCCOCCOCCP(=O)(O)O)NC(=O)CCCCCCCCCCC [Example 81, ((11S,14R,18R)-14-amino-18-dodecanamido-11-(hydroxymethyl)-10,13-dioxo-3,6,20-trioxa-16-thia-9,12-diazadotriacontyl)phosphonic acid] |
| 84 | 830 | CCCCCCCCCCNC(=O)OC[C@H](CSC[C@H](NC(C)=O)C(=O)NCCOCCOCCOCCP(=O)(O)O)OC(=O)NCCCCCCCCCC [Example 82, ((14R,18R)-14-acetamido-18-((decylcarbamoyl)oxy)-13,21-dioxo-3,6,9,20-tetraoxa-16-thia-12,22-diazadotriacontyl)phosphonic acid] |
| 76 | 820 | CCCCCCCCCCNC(=O)OC[C@H](CSC[C@H](N)C(=O)NCCOCCOCCOCCP(=O)(O)O)OC(=O)NCCCCCCCCCC [Example 83, ((14R,18R)-14-amino-18-((decylcarbamoyl)oxy)-13,21-dioxo-3,6,9,20-tetraoxa-16-thia-12,22-diazadotriacontyl)phosphonic acid] |
| 72 | 5560 | CCCCCCCCCCCC(=O)OC[C@H](CSC[C@H](N)C(=O)NCCCS(=O)(=O)O)OC(=O)CCCCCCCCCCC [Example 84, 3-((R)-2-amino-3-(((R)-2,3-bis(dodecanoyloxy)propyl)thio)propanamido)propane-1-sulfonic acid] |
